Laboratory results: article PMC6193938, “Characterization of a novel AICARFT inhibitor which potently elevates ZMP and has anti-tumor activity in murine models” (Scientific Reports, 2018)
Like-named read-outs stand apart in the source and are kept apart here.

Tests used:
AXL = target: T1, AXL (Homo sapiens, UniProt P30530); assay: CEREP protein kinase assay; assay type: biochemical
T1 construct: purchased CEREP Panlabs (Eurofins)
T1 sequence (P30530 26-894): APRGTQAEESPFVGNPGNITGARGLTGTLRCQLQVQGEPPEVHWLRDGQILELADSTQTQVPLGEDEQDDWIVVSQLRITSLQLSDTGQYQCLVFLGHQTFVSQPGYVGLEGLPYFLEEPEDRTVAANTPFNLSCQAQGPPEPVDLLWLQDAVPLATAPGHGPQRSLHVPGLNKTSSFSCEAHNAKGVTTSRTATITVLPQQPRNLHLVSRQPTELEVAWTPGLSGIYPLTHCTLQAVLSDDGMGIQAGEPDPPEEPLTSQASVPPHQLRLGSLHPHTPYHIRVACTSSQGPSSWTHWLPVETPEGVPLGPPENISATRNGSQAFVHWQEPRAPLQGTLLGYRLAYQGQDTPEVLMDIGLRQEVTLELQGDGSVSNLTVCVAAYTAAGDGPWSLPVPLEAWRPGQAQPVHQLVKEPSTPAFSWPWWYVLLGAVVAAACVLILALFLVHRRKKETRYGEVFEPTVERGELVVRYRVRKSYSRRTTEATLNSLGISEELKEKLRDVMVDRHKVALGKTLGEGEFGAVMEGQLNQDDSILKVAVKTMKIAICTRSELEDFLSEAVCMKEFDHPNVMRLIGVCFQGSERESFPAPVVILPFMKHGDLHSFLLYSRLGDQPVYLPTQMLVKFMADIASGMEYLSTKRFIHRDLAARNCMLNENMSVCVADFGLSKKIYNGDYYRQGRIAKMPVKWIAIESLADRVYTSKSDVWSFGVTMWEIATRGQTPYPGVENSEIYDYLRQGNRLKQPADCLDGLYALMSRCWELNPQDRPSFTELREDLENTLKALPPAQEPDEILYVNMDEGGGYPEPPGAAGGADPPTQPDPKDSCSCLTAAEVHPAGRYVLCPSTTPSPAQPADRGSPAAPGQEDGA

FMS = target: T2, FMS (Homo sapiens, UniProt P07333); assay: CEREP protein kinase assay; assay type: biochemical
T2 construct: purchased CEREP Panlabs (Eurofins)
T2 sequence (P07333 20-972): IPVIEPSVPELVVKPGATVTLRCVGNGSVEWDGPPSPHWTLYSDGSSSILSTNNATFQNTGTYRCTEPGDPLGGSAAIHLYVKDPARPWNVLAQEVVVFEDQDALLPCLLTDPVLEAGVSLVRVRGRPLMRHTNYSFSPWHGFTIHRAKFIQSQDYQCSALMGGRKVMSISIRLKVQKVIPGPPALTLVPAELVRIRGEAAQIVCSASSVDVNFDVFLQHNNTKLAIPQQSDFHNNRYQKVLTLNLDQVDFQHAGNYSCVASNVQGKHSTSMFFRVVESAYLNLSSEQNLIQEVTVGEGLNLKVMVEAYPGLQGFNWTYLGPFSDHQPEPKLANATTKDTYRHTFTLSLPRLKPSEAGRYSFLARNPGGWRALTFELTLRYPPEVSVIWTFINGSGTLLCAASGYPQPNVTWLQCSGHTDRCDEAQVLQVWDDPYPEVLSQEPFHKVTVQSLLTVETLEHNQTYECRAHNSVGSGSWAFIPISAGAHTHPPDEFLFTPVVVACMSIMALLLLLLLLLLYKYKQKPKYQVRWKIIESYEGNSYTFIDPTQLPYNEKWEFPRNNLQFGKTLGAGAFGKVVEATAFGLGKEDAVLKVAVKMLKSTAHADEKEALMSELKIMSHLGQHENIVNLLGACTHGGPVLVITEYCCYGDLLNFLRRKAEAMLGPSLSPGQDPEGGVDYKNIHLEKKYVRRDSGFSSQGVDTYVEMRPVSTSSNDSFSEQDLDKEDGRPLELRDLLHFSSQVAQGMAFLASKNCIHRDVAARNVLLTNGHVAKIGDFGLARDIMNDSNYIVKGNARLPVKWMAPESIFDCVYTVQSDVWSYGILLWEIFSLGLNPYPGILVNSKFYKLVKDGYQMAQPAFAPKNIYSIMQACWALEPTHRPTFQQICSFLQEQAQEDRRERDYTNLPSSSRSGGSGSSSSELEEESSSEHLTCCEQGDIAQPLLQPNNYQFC

MDA-MB-231 = assay: In vitro proliferation assay, Cell Titer Glo; assay type: cell-based; settings: Homo sapiens
Description: Cell Titer Glo measures ATP, thus the IC50s represent both the effect on purine production and cell proliferation, which are related. […] Folates are actively taken up in cells by reduced folate carrier (SLC19A1), proton-coupled folate transporter (SLC46A1), and the FOLR1 folate receptor[17]. Once inside the cell, folates are trapped by polyglutamation catalyzed by folylpolyglutamate synthetase (FPGS). […] Gene expression data for ATIC, GART, APRT, HPRT, FOLR1, SLC19A1, SLC46A1 & FPGS are shown in Fig. 2, since these genes were anticipated to predict sensitivity. […] The MDA-MB-231 cell line is reduced folate carrier (SLC19A1) negative due to epigenetic silencing.
Cells were cultured using recommended culture conditions unless noted otherwise (Supplemental Table 3). Cells were plated, dosed with compound and incubated at 37 °C for approximately 2 doubling times as determined for each cell line. Cell Titer Glo (Promega) assay was used to measure proliferation according to manufacturer’s recommendations by measuring luminescence with Flexstation3 (Molecular Devices) with 500 ms integration time. […] The % response was fit to a four-parameter logistic equation using ACTIVITYBASE 4.0 to determine the absolute IC50 values.

ERK2 = target: T3, ERK2 (Homo sapiens, UniProt P28482); assay: CEREP protein kinase assay; assay type: biochemical
T3 construct: purchased CEREP Panlabs (Eurofins)
T3 sequence (P28482 whole entry): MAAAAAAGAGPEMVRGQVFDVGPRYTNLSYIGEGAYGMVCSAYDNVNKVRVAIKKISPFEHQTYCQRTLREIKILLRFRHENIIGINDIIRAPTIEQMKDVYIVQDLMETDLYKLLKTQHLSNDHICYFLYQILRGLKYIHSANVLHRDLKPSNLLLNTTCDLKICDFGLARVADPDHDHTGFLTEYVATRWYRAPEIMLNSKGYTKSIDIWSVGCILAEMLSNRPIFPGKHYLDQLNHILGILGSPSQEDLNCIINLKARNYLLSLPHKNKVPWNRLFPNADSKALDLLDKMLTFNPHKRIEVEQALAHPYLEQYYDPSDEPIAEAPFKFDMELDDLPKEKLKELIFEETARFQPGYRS

NCI-H460 xenografts = assay: Pharmacodynamic response of tumor metabolites, single PO dose, low folate chow; assay type: in vivo, mouse
Description: Figure 4 Pharmacodynamic response of ZMP (purple), AICAR (blue), […] (green), dUMP (red), AMP (aqua) & GMP (orange) metabolites in tumors following a single PO dose of LSN3213128 in athymic nude mice.

TRKB = target: T4, TRKB (Homo sapiens, UniProt Q16620); assay: CEREP protein kinase assay; assay type: biochemical
T4 construct: purchased CEREP Panlabs (Eurofins)
T4 sequence (Q16620 32-822): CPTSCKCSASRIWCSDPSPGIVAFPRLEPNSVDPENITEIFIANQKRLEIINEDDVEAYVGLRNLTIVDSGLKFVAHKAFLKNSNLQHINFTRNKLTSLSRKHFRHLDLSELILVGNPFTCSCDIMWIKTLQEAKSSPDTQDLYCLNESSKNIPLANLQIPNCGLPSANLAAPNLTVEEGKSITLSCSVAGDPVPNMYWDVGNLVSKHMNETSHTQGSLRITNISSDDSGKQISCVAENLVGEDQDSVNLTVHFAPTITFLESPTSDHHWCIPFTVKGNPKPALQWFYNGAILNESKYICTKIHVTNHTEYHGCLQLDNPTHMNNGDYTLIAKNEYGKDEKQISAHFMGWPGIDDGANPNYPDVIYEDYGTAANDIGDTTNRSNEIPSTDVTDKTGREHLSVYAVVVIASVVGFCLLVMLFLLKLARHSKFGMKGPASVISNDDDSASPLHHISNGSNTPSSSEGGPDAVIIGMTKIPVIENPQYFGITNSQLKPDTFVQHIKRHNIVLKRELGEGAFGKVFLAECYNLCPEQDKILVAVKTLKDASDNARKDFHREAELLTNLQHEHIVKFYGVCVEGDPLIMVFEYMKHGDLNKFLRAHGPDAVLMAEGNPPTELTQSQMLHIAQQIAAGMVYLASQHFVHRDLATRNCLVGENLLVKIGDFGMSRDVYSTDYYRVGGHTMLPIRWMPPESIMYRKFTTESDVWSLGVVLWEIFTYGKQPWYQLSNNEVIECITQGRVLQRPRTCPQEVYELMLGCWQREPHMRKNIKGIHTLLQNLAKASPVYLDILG

TTK = target: T5, TTK (Homo sapiens, UniProt P33981); assay: CEREP protein kinase assay; assay type: biochemical
T5 construct: purchased CEREP Panlabs (Eurofins)
T5 sequence (P33981 1-857): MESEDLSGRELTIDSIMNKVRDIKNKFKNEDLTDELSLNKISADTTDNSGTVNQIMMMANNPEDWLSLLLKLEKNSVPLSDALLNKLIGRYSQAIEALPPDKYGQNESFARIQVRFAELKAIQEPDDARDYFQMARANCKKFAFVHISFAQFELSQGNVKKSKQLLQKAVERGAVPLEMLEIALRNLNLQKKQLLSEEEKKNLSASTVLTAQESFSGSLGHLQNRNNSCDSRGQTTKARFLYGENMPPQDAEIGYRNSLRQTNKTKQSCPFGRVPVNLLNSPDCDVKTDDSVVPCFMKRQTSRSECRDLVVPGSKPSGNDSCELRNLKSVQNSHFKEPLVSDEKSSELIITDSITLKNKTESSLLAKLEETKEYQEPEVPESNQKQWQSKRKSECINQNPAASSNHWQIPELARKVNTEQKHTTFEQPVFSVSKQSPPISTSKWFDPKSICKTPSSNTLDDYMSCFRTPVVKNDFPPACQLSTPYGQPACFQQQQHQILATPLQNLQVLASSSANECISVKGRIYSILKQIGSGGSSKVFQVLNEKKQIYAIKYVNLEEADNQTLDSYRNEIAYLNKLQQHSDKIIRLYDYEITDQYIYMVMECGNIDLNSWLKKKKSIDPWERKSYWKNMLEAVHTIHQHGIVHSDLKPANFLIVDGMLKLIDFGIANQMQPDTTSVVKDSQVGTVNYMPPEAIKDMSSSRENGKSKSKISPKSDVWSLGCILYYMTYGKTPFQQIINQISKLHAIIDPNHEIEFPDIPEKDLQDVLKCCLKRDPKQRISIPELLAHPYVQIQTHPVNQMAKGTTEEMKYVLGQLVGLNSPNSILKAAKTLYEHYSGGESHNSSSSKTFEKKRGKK

O=c1[nH]ccc2cc(F)c(NS(=O)(=O)c3ccc(N4CC[C@@H](O)C4)s3)cc12 [LSN3213128, N-(6-Fluoro-1-oxo-1,2-dihydroisoquinolin-7-yl)-5-[(3R)-3-hydroxypyrrolidin-1-yl]thiophene-2-sulfonamide]
inhibition at 0.2 µM (AXL; @ 0.2 uM): -9.2% | inhibition at 2 µM (AXL; @ 2 uM): 2.93% | inhibition at 20 µM (AXL; @ 20 uM): 22.2% | inhibition at 0.2 µM (FMS; @ 0.2 uM): 2.06% | inhibition at 2 µM (FMS; @ 2 uM): 19.2% | inhibition at 20 µM (FMS; @ 20 uM): 48.4% | IC50 (MDA-MB-231; MDA-MB-231, breast, read-out: ABS_IC50_VALUE): 20 nM | IC50 (MDA-MB-231; MDA-MB-231, Cell Titer Glo, two doubling times, read-out: IC50 by CTG): 7.6 nM | inhibition at 0.2 µM (ERK2; @ 0.2 uM): -4.25% | inhibition at 2 µM (ERK2; @ 2 uM): 11.1% | inhibition at 20 µM (ERK2; @ 20 uM): 60.3% | tumor dUMP levels (NCI-H460 xenografts; low folate chow, 4 h, up to 60 mg/kg): unchanged | dose at which tumor ZMP response appears to saturate (NCI-H460 xenografts; nude mice on low folate chow, 4 h post PO dose): 1 mg/kg | inhibition at 0.2 µM (TRKB; @ 0.2 uM): 2.14% | inhibition at 2 µM (TRKB; @ 2 uM): 3.76% | inhibition at 20 µM (TRKB; @ 20 uM): 20.3% | inhibition at 0.2 µM (TTK; @ 0.2 uM): -4.62% | inhibition at 2 µM (TTK; @ 2 uM): 6.44% | inhibition at 20 µM (TTK; @ 20 uM): 18.6%
